For one experiment, the target named is T1, mTOR kinase (Homo sapiens, UniProt P42345).
T1 construct: purchased DiscoveRx (KinomeScan platform)
Briefly: DiscoveRx's KinomeScan binding. Conditions: read-out: % control number, mTOR.

Experiment [1] relates to MEC-2. Kind of experiment: Induction of apoptosis (PARP cleavage). The experiment is classed as cell-based. To be noted: MEC-2, evident at 3 μM to 10 μM.
Experiment [2] concerns MEC-2. Kind of experiment: Anti-proliferative effect. The experiment is classed as cell-based. Conditions: MEC2, read-out: GI50 MEC-2.
In experiment [3] the test system is LC3BII accumulation in HeLa cells. Briefly: LC3BII accumulation in the presence of EBSS and HCQ (immunoblot). The class given is cell-based. To be noted: Homo sapiens, EBSS and HCQ (25 μM), read-out: EC50 prevention of LC3BII accumulation. As for the experimental part: (§1) HeLa cells were treated with different concentrations of inhibitors for 16 hours. For all immunofluorescence experiments, cells were fixed in -20 °C methanol for 5 minutes or 3.7% (v/v) formaldehyde in phosphate-buffered saline (PBS) for 20 minutes. For LC3B staining, cells were fixed in -20 °C methanol. For EEA1 and LAMP1 staining, cells were fixed in PBS+ formaldehyde. Cells were then permeabilized with TBSTx (0.1% Triton X-100), blocked in AbDil (TBSTx + 2% BSA + 0.1% NaN3), and probed with primary and secondary antibodies diluted in AbDil. Cells were rinsed thoroughly with TBSTx and mounted by anti-fade prolong Gold with DAPI. Images were taken using a Leica DMI4000B fluorescent microscope. All experiments were repeated at least three times). […] Cells were lysed in lysis buffer. P62, LC3B, and GAPDH antibodies were used for immunoblotting.
For orientation: A western blot detects proteins with antibodies after separation by electrophoresis.

The subject of another experiment is Ramos. Briefly: Anti-proliferative effect. The experiment is classed as cell-based. Conditions: Homo sapiens, read-out: GI50 Ramos.
The test system of the next experiment is MOLM-14. Kind of experiment: Anti-proliferative effect. The class given is cell-based. Conditions: AML (FLT3-ITD).
Experiment [4] concerns LC3B puncta in HeLa cells. Kind of experiment: Immunofluorescence of LC3B puncta. The class given is cell-based. To be noted: 16 hours. As for the experimental part: as §1
The next experiment has as its target T2, PI3Kα (Mus musculus, UniProt P42337).
T2 construct: endogenous in cells; host or cells: NIH-3T3 (ATCC)
Briefly: PI3K isoforms cellular selectivity assay (AKT phosphorylation, NIH-3T3, PDGF-BB). The experiment is classed as cell-based. To be noted: NIH-3T3 cells, PDGF-BB stimulation. The method, then: Cells were lysed and AKT phosphorylation was determined by Western Blotting. Intensity of the bands was determined using ImageJ 1.42q (NIH, USA) and normalized to total AKT (loading control).

The test system of a further experiment is NB4. Kind of experiment: Anti-proliferative effect. The class given is cell-based. To be noted: Homo sapiens, read-out: GI50 NB4.
The subject of experiment [5] is PI3Kδ-mediated signaling in OCI-AML-2, OCI-AML-3, MV4-11 and MEC-2 cell lines. Briefly: PI3Kδ-mediated signaling pathway (immunoblotting). The class given is cell-based. To be noted: all four cell lines. The source says: The following antibodies were purchased from Cell Signaling Technology: Akt(#4691), Phospho-Akt(Thr308)(#4056), Phospho-Akt(Ser473)(#4060), GAPDH, GSK-3β(#9315), Phospho-GSK-3β(#9323), FoxO1(#2880), Phospho-FoxO1 (Thr24)/FoxO3a(Thr32)/FoxO4(Thr28)(#2599), PRAS40(#2691), Phospho-PRAS40 (Thr246)(#2997), 4E-BP1(#9644), p70 S6K(#2708), Phospho-p70 S6K (Thr389)(#9234). SQSTM1/p62 (D5E2)(#8025), LC3B(#12513). PARP(#9532), Caspase-3(#9665), Phospho-p44/42 MAPK (Erk1/2) (Thr202/Tyr204)(#4377), p44/42 MAPK (Erk1/2) (#4695), Phospho-NF-ΚB P65 (Ser 536)(#3033), NF-ΚB P65(#4764). Lysophosphatidic Acid (#sc-201053, Santa Cruz), Recombinant Human PDGF-BB (#220-BB, R&D), Recombinant Human C5a (Peprotech, #300-70), goat anti-IgM (#5C07615, Meridian). LC3B antibody (#3868, CST). Tubulin antibody (#8035, Santa Cruz). EEA1 antibody (#610456, BD Bioscience) and LAMP1 antibody (#24170, Abcam). Secondary antibodies, Alexa488-anti-mouse, Alexa594-anti-rabbit and Prolong gold mounting medium with DAPI were purchased from Invitrogen.

The next experiment deals with protein kinases. Kind of experiment: DiscoveRx's KinomeScan selectivity profile. The experiment is classed as binding. To be noted: 1 μM.
For experiment [6], the system named is MEC-2. Kind of experiment: Colony formation (colonogenic assay). To be noted: MEC2; CLL. The experiment is classed as cell-based.

T2 sequence (P42337 whole entry): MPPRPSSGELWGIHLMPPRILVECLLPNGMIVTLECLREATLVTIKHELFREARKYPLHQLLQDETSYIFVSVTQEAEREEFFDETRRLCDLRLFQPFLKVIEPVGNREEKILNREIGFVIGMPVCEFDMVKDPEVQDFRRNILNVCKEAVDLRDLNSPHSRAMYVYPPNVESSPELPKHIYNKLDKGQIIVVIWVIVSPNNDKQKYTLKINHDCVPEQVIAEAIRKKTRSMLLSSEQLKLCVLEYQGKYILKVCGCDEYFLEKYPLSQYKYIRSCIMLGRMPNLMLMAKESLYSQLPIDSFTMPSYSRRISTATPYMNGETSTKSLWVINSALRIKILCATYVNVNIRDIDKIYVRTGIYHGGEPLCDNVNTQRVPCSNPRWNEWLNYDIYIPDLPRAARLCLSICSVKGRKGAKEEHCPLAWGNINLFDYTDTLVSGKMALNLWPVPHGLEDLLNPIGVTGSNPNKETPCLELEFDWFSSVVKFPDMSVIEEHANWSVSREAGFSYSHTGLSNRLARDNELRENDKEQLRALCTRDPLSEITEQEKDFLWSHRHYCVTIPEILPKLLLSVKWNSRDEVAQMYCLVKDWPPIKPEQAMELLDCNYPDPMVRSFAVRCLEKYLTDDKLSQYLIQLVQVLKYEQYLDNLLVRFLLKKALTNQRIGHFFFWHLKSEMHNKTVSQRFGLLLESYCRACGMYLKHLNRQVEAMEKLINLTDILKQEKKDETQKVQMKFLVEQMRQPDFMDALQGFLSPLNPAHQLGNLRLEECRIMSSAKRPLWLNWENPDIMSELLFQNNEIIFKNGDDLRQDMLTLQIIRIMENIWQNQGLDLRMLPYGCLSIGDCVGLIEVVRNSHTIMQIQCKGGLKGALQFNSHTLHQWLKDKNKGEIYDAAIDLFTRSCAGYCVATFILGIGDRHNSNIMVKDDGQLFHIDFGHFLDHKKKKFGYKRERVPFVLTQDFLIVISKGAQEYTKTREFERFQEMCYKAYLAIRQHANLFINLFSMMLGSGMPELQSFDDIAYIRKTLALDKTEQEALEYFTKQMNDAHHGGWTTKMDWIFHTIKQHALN
T2 sequence (P26450 whole entry partner): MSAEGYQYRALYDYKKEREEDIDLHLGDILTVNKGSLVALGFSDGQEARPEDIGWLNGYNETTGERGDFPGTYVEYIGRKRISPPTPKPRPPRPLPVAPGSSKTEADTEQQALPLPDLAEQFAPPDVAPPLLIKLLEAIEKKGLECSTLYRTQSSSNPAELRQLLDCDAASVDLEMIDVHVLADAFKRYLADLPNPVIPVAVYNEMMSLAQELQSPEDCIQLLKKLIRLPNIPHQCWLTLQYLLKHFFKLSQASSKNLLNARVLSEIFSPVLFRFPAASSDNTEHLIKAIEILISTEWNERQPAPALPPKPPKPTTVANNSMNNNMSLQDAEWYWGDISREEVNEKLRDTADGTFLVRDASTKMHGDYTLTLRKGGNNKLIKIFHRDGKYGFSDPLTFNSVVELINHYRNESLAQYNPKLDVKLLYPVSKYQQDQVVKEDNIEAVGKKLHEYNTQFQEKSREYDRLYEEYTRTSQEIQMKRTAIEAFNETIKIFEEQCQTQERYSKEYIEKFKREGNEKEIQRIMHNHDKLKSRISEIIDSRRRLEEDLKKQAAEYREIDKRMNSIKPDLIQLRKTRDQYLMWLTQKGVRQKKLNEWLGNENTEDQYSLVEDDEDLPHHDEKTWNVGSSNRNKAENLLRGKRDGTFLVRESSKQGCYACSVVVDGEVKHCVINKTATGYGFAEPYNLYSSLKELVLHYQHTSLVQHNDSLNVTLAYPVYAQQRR

What is called GI50 is the concentration giving 50% growth inhibition. For orientation: EC50 means the concentration needed to bring the measured effect to its halfway point. `Cc1nc(NC(=O)CN)sc1-c1cnc(Cl)c(NS(=O)(=O)c2ccc(C(C)(C)C)cc2)c1` [PI3KD/V-IN-01, 2-amino-N-(5-(5-(4-tert-butylphenylsulfonamido)-6-chloropyridin-3-yl)-4-methylthiazol-2-yl)acetamide]: the remaining binding at 1 µM at mTOR kinase is 0%. In addition, in the experiment with MEC-2 [1], the induction of apoptosis entry is reported as “only a modest induction of apoptosis”. The GI50 is 2.4 µM in the experiment on MEC-2 [2]; 5.4 µM in the experiment with Ramos; 0.51 µM in the experiment with MOLM-14; less than 1 µM in the experiment on MOLM-14 (Homo sapiens, MOLM-14); 1.4 µM in the experiment with NB4. Besides, the figures for the concentration for a half-maximal effect (EC50) (in experiment [3]; at PI3Kα; in the experiment with MEC-2 [6]) were 0.413 µM, 2.97 µM and 1.58 µM, respectively. In addition, the “Effect on LC3B puncta” value in experiment [4] was “increased LC3B puncta”. The “Activity of GSK3β and NFκB” value in experiment [5] is “not affected”. For the same molecule, the “Phosphorylation of 4EBP1” value in experiment [5] is “not inhibited”. Moreover, in experiment [5], the “effect on pAKT(T308, S473), pFOXO1, pPRAS40 and pS6K” value was “inhibition of pAKT(T308, S473) and downstream pFOXO1, pPRAS40 and pS6K”. Besides, the “S score (5)” value in the experiment with protein kinases is recorded as 0.00.

Source of the values: publication PMC5288202, “Simultaneous inhibition of Vps34 kinase would enhance PI3Kδ inhibitor cytotoxicity in the B-cell malignancies” (Oncotarget, 2016).
